{"source": "ChEMBL document CHEMBL1129817", "about": "“Novel water-soluble analogues retaining potent antitumor activity of RA-VII, a cyclic hexapeptide from Rubia plants” (Bioorg Med Chem Lett, 1997)", "key": {"KB": {"system": "KB", "assay": "Compound was evaluated for cytotoxicity against human epidermoid carcinoma of nasopharynx (KB) cells", "format": "functional, cell-based"}, "P388 [1]": {"system": "P388", "assay": "Percentage of the median survival time of P388 leukemic mice (T) at intraperitoneal administration of 6.25 mg/kg dose to that of controls (C)", "format": "functional, Mus musculus"}, "P388 [2]": {"system": "P388", "assay": "Percentage of the median survival time of P388 leukemic mice (T) at intraperitoneal administration of 0.4 mg/kg dose to that of controls (C)", "format": "functional, Mus musculus"}, "P388 [3]": {"system": "P388", "assay": "Percentage of the median survival time of P388 leukemic mice (T) at intraperitoneal administration of 1.6 mg/kg dose to that of controls (C)", "format": "functional, Mus musculus"}, "L1210": {"system": "L1210", "assay": "Compound was evaluated for cytotoxicity against L1210 leukemia cells", "format": "functional, cell-based", "details": "Mus musculus"}, "[4]": {"system": "KATO III stomach cancer cell line", "assay": "Compound was evaluated for cytotoxicity against KATO-III gastric carcinoma cells", "format": "functional, cell-based", "details": "Homo sapiens"}, "P388 [5]": {"system": "P388", "assay": "Percentage of the median survival time of P388 leukemic mice (T) at intraperitoneal administration of 6.25 mg/kg dose to that of controls (C); Toxic", "format": "functional, organism-based", "design": "dose 6.25 mg/kg", "details": "Mus musculus"}, "B16 [6]": {"system": "B16", "assay": "Compound was evaluated for percent tumor volume against B16 melanoma in mice (T) at 3.13 mg/kg intravenous administration after 11 days ot that of control (C)", "format": "functional, Mus musculus"}, "Colon 26 [7]": {"system": "Colon 26", "assay": "Compound was evaluated for percent tumor volume against colon 26 cells in mice (T) at a dose of 1.6 mg/kg intravenous administration after 12 days ot that of control (C)", "format": "functional, Mus musculus"}, "Colon 26 [8]": {"system": "Colon 26", "assay": "Compound was evaluated for percent tumor volume against colon 26 cells in mice (T) at a dose of 6.25 mg/kg intravenous administration after 10 days ot that of control (C)", "format": "functional, Mus musculus"}, "B16 [9]": {"system": "B16", "assay": "Compound was evaluated for percent tumor volume against B16 melanoma in mice (T) at 6.25 mg/kg intravenous administration after 11 days ot that of control (C)", "format": "functional, Mus musculus"}, "Colon 26 [10]": {"system": "Colon 26", "assay": "Compound was evaluated for percent tumor volume against colon 26 cells in mice (T) at a dose of 3.13 mg/kg intravenous administration after 8 days ot that of control (C)", "format": "functional, Mus musculus"}, "B16 [11]": {"system": "B16", "assay": "Compound was evaluated for percent tumor volume against B16 melanoma in mice (T) at 6.25 mg/kg intravenous administration after 8 days ot that of control (C)", "format": "functional, Mus musculus"}, "Colon 26 [12]": {"system": "Colon 26", "assay": "Compound was evaluated for percent tumor volume against colon 26 cells in mice (T) at a dose of 6.25 mg/kg intravenous administration after 8 days ot that of control (C)", "format": "functional, Mus musculus"}, "Colon 26 [13]": {"system": "Colon 26", "assay": "Compound was evaluated for percent tumor volume against colon 26 cells in mice (T) at a dose of 6.25 mg/kg intravenous administration after 12 days ot that of control (C), (Number of mice surviving / number of mice tested); T/C, 7/8", "format": "functional, Mus musculus"}, "Colon 26 [14]": {"system": "Colon 26", "assay": "Compound was evaluated for percent tumor volume against colon 26 cells in mice (T) at a dose of 1.6 mg/kg intravenous administration after 8 days ot that of control (C)", "format": "functional, Mus musculus"}, "Colon 26 [15]": {"system": "Colon 26", "assay": "Compound was evaluated for percent tumor volume against colon 26 cells in mice (T) at a dose of 3.13 mg/kg intravenous administration after 12 days ot that of control (C), (Number of mice surviving / number of mice tested); T/C, 6/8", "format": "functional, Mus musculus"}, "Colon 26 [16]": {"system": "Colon 26", "assay": "Compound was evaluated for percent tumor volume against colon 26 cells in mice (T) at a dose of 1.6 mg/kg intravenous administration after 10 days ot that of control (C)", "format": "functional, Mus musculus"}, "B16 [17]": {"system": "B16", "assay": "Compound was evaluated for percent tumor volume against B16 melanoma in mice (T) at 3.13 mg/kg intravenous administration after 13 days ot that of control (C)", "format": "functional, Mus musculus"}, "B16 [18]": {"system": "B16", "assay": "Compound was evaluated for percent tumor volume against B16 melanoma in mice (T) at 3.13 mg/kg intravenous administration after 8 days ot that of control (C)", "format": "functional, Mus musculus"}, "Colon 26 [19]": {"system": "Colon 26", "assay": "Compound was evaluated for percent tumor volume against colon 26 cells in mice (T) at a dose of 3.13 mg/kg intravenous administration after 10 days ot that of control (C), (Number of mice surviving / number of mice tested; T/C), 7/8", "format": "functional, Mus musculus"}}, "note": "Where “and” joins values, the source holds several entries; their conditions need not be identical. Identical values can stand only once.", "data": [{"smiles": "COc1ccc(C[C@H]2C(=O)N[C@@H](C)C(=O)N(C)[C@H]3Cc4cccc(c4)Oc4cc(ccc4OCCN(Cc4ccccc4)Cc4ccccc4)C[C@@H](C(=O)N[C@H](C)C(=O)N[C@@H](C)C(=O)N2C)N(C)C3=O)cc1", "values": [{"measurement": "IC50", "setting": "KB", "value": 59, "unit": "ng/mL"}]}, {"smiles": "COc1ccc(C[C@H]2C(=O)N[C@@H](C)C(=O)N(C)[C@H]3Cc4cccc(c4)Oc4cc(ccc4OCCN4CCCC4)C[C@@H](C(=O)N[C@H](C)C(=O)N[C@@H](C)C(=O)N2C)N(C)C3=O)cc1", "values": [{"measurement": "IC50", "setting": "KB", "value": 19, "unit": "ng/mL"}]}, {"smiles": "COc1ccc(C[C@H]2C(=O)N[C@@H](C)C(=O)N(C)[C@H]3Cc4cccc(c4)Oc4cc(ccc4OCCN4CCCCCC4)C[C@@H](C(=O)N[C@H](C)C(=O)N[C@@H](C)C(=O)N2C)N(C)C3=O)cc1", "values": [{"measurement": "IC50", "setting": "KB", "value": 7.6, "unit": "ng/mL"}]}, {"smiles": "COc1ccc(C[C@H]2C(=O)N[C@@H](C)C(=O)N(C)[C@H]3Cc4cccc(c4)Oc4cc(ccc4OCCN4CCCCC4)C[C@@H](C(=O)N[C@H](C)C(=O)N[C@@H](C)C(=O)N2C)N(C)C3=O)cc1", "values": [{"measurement": "T/C", "setting": "P388 [1]", "value": 127, "unit": "%"}, {"measurement": "T/C", "setting": "P388 [2]", "value": 115, "unit": "%"}, {"measurement": "T/C", "setting": "P388 [3]", "value": 123, "unit": "%"}]}, {"smiles": "CCN(CC)CCOc1ccc2cc1Oc1cccc(c1)C[C@H]1C(=O)N(C)[C@@H](C2)C(=O)N[C@H](C)C(=O)N[C@@H](C)C(=O)N(C)[C@@H](Cc2ccc(OC)cc2)C(=O)N[C@@H](C)C(=O)N1C", "values": [{"measurement": "T/C", "setting": "P388 [1]", "value": 136, "unit": "%"}, {"measurement": "T/C", "setting": "P388 [2]", "value": 116, "unit": "%"}, {"measurement": "T/C", "setting": "P388 [3]", "value": 124, "unit": "%"}]}, {"smiles": "COc1ccc(C[C@H]2C(=O)N[C@@H](C)C(=O)N(C)[C@H]3Cc4cccc(c4)Oc4cc(ccc4OCCN(C(C)C)C(C)C)C[C@@H](C(=O)N[C@H](C)C(=O)N[C@@H](C)C(=O)N2C)N(C)C3=O)cc1", "values": [{"measurement": "IC50", "setting": "KB", "value": 4.6, "unit": "ng/mL"}, {"measurement": "IC50", "setting": "L1210", "value": 4.5, "unit": "ng/mL"}, {"measurement": "IC50", "setting": "[4]", "value": 1.5, "unit": "ng/mL"}]}, {"smiles": "COc1ccc(C[C@H]2C(=O)N[C@H](C)C(=O)N(C)[C@H]3Cc4cccc(c4)Oc4cc(ccc4OC)C[C@@H](C(=O)N[C@H](C)C(=O)N[C@@H](C)C(=O)N2C)N(C)C3=O)cc1", "values": [{"measurement": "T/C", "setting": "P388 [5]", "value": "Toxic"}]}, {"smiles": "COc1ccc(C[C@H]2C(=O)N[C@@H](C)C(=O)N(C)[C@H]3Cc4cccc(c4)Oc4cc(ccc4OCCN(C)C)C[C@@H](C(=O)N[C@H](C)C(=O)N[C@@H](C)C(=O)N2C)N(C)C3=O)cc1", "values": [{"measurement": "T/C", "setting": "B16 [6]", "value": 67.9, "unit": "%"}, {"measurement": "T/C", "setting": "Colon 26 [7]", "value": 102.5, "unit": "%"}, {"measurement": "T/C", "setting": "Colon 26 [8]", "value": 70, "unit": "%"}, {"measurement": "T/C", "setting": "B16 [9]", "value": 40.8, "unit": "%"}, {"measurement": "T/C", "setting": "P388 [1]", "value": 153, "unit": "%"}, {"measurement": "T/C", "setting": "Colon 26 [10]", "value": 54.4, "unit": "%"}, {"measurement": "T/C", "setting": "B16 [11]", "value": "57% and 40.8%"}, {"measurement": "T/C", "setting": "Colon 26 [12]", "value": 48.1, "unit": "%"}, {"measurement": "T/C", "setting": "Colon 26 [13]", "value": 125.5, "unit": "%"}, {"measurement": "T/C", "setting": "Colon 26 [14]", "value": 84.1, "unit": "%"}, {"measurement": "T/C", "setting": "Colon 26 [15]", "value": 101.5, "unit": "%"}, {"measurement": "T/C", "setting": "Colon 26 [16]", "value": 76.7, "unit": "%"}, {"measurement": "T/C", "setting": "B16 [17]", "value": 140.5, "unit": "%"}, {"measurement": "T/C", "setting": "P388 [2]", "value": 127, "unit": "%"}, {"measurement": "T/C", "setting": "B16 [18]", "value": 77.2, "unit": "%"}, {"measurement": "T/C", "setting": "P388 [3]", "value": 145, "unit": "%"}, {"measurement": "T/C", "setting": "Colon 26 [19]", "value": 55.8, "unit": "%"}]}, {"smiles": "CCN(CCOc1ccc2cc1Oc1cccc(c1)C[C@H]1C(=O)N(C)[C@@H](C2)C(=O)N[C@H](C)C(=O)N[C@@H](C)C(=O)N(C)[C@@H](Cc2ccc(OC)cc2)C(=O)N[C@@H](C)C(=O)N1C)c1ccccc1", "values": [{"measurement": "IC50", "setting": "KB", "value": 9.9, "unit": "ng/mL"}]}]}
